{"source": "patent US4439606A", "about": "“Antiatherosclerotic 1-piperazinecarbonyl compounds” (American Cyanamid Company, priority 1982, dated 1984)", "data": [{"test_system": "serum cholesterol and triglyceride", "test": "Lowering of serum lipid levels, oral administration in diet to rats", "assay_type": "in vivo, male rats COBS, CD, SD strain", "conditions": "0.1% of test compound by weight in diet, 5 days, vs control rats", "method": "The compounds were also tested for their ability to lower lipid levels in mammals. The compounds were administered orally admixed with diet to groups of four male rats COBS, CD, SD strain from Charles River Breeding Laboratories, Inc., Wilmington, Mass. A control group of eight rats was maintained on the diet alone; test groups were maintained on the diet plus 0.1% of test compound by weight. After 5 days treatment, serum cholesterol and triglyceride concentrations were determined by direct enzymatic procedures using a Centrifichem® System 400 autoanalyzer (Union Carbide Co.). Cholesterol concentrations were determined by the combined cholesterol esterasecholesterol oxidase procedure of Roeschlau, et al., Zeit. Klin. Chem. Klin. Biochem., 12, 226 (1974). Triglycerides were determined by the combined method of lipase catalyzed hydrolysis of triglycerides to glycerol and free fatty acids [Bucolo, G. and David, H., Clin. Chem., 19, 476 (1973) and Wahlefeld, A. W., in \"Methods of Enzymatic Analysis,\" Vol, 4, Bergmeyer, H. D., Editor, Academic Press, New York, N.Y. (1974), pp. 1831-1835] and the enzymatic oxidation of the glycerol which leads to the production of colored formazan [Stavropoulos, W. S. and Crouch, R. D., Clin. Chem., 20, No. 7, 857 (1974)]. […] The compounds are considered active if they produce a statistically significant lowering of either sterol or triglycerides.", "units": {"% Lowering of Serum Triglycerides": "%"}, "values": [{"smiles": "Cc1cccc(CC(=O)N2CCN(c3cnccn3)CC2)c1", "note": "[1-(2-Pyrazinyl)-4-(m-tolylacetyl)piperazine]", "% Lowering of Serum Triglycerides": 40}, {"smiles": "CC1CN(C(=O)Cc2ccccc2)CCN1c1ccc(Cl)cc1", "note": "(stereo not shown) [1-(p-Chlorophenyl)-2-methyl-4-phenylacetylpiperazine]", "% Lowering of Serum Triglycerides": 61}, {"smiles": "O=C(Cc1ccccc1)N1CCN(Cc2cccnc2)CC1", "note": "[1-Phenylacetyl-4-(3-pyridylmethyl)piperazine]", "% Lowering of Serum Triglycerides": 34}, {"smiles": "O=C(c1ccccc1)N1CCN(c2cnccn2)CC1", "note": "[1-benzoyl-4-(2-pyrazinyl)piperazine, 1-Benzoyl-4-(2-pyrazinyl)piperazine]", "% Lowering of Serum Triglycerides": 30}, {"smiles": "O=C(c1cccnc1)N1CCN(c2cnccn2)CC1", "note": "[1-(2-Pyrazinyl)-4-(3-pyridylcarbonyl)piperazine]", "% Lowering of Serum Triglycerides": 30}, {"smiles": "O=C(Cc1ccc(Cl)cc1)N1CCN(c2cnccn2)CC1", "note": "[1-(p-Chlorophenylacetyl)-4-(2-pyrazinyl)piperazine]", "% Lowering of Serum Triglycerides": 51}, {"smiles": "Cc1ccccc1CC(=O)N1CCN(c2cnccn2)CC1", "note": "[1-(2-Methylphenylacetyl)-4-(2-pyrazinyl)piperazine]", "% Lowering of Serum Triglycerides": 55}, {"smiles": "COc1cncc(N2CCN(C(=O)Cc3ccccc3)CC2)n1", "note": "[1-(6-Methoxy-2-pyrazinyl)-4-phenylacetylpiperazine]", "% Lowering of Serum Triglycerides": 56}, {"smiles": "O=C(C1CC1)N1CCN(c2cnccn2)CC1", "note": "[1-Cyclopropylcarbonyl-4-(2-pyrazinyl)piperazine]", "% Lowering of Serum Triglycerides": 37}, {"smiles": "CNC(=O)N1CCN(c2cnccn2)CC1", "note": "[N--Methyl-4-(2-pyrazinyl)-1-piperazinecarboxamide]", "% Lowering of Serum Triglycerides": 38}, {"smiles": "O=C(N1CCN(c2cnccn2)CC1)C(F)(F)C(F)(F)C(F)(F)F", "note": "[1-Heptafluorobutyroyl-4-(2-pyrazinyl)piperazine]", "% Lowering of Serum Triglycerides": 51}, {"smiles": "CCNC(=O)N1CCN(c2cnccn2)CC1", "note": "[N--Ethyl-4-(2-pyrazinyl)-1-piperazinecarboxamide]", "% Lowering of Serum Triglycerides": 43}, {"smiles": "O=C(Nc1ccc(Cl)cc1)N1CCN(c2cnccn2)CC1", "note": "[4'-Chloro-4-(2-pyrazinyl)-1-piperazinecarboxanilide]", "% Lowering of Serum Triglycerides": 33}, {"smiles": "O=C(Cc1cccc(Cl)c1)N1CCN(c2cnccn2)CC1", "note": "[1-(m-Chlorophenylacetyl)-4-(2-pyrazinyl)piperazine]", "% Lowering of Serum Triglycerides": 46}]}, {"target": "T1, fatty acyl CoA:-cholesterol acyl transferase (ACAT) (Rattus norvegicus, UniProt O70536)", "T1 construct": "The supernatant, containing the microsomal fraction, served as the source of the cholesterol-esterifying enzyme; from tissue; host or cells: rat adrenals, 1000 x g supernatant containing the microsomal fraction", "T1 sequence (O70536 1-545)": "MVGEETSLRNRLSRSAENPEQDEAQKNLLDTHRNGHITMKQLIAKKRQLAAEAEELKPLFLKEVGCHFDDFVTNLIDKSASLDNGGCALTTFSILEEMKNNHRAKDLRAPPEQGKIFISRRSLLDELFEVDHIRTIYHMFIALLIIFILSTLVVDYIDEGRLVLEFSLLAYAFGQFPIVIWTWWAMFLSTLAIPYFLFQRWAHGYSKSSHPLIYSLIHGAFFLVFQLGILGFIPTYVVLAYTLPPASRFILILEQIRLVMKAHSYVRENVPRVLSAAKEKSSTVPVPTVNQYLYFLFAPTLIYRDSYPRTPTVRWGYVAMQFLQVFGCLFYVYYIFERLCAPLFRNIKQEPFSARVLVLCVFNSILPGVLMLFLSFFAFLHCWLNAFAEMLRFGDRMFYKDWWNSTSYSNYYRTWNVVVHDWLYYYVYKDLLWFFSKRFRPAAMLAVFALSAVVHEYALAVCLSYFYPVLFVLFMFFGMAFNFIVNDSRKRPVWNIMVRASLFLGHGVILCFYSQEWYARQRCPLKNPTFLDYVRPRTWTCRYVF", "test": "Inhibition of enzymatic esterification of cholesterol (ACAT inhibition), rat adrenal supernatant", "assay_type": "biochemical", "conditions": "final concentration 5.2 μg./ml., 37° C., 30 minutes", "method": "The compounds of the present invention were tested for their ability to inhibit the enzymatic esterification of cholesterol according to the procedure of Hashimoto, et al., Life Sci., 12(Part II), 1-12 (1973).\nRat adrenals were homogenized in 0.2 M monobasic potassium phosphate buffer, pH 7.4, and centrifuged at 1000 times gravity for 15 minutes at 5° C. The supernatant, containing the microsomal fraction, served as the source of the cholesterol-esterifying enzyme, fatty acyl CoA:-cholesterol acyl transferase (ACAT). A mixture comprising 50 parts of adrenal supernatant, 10 parts of bovine serum albumin (50 mg./ml.), 3 parts of test compound (final concentration 5.2 μg./ml.) and 500 parts of buffer were preincubated at 37° C. for 10 minutes, following which 20 parts of oleoyl […] were added and the final mixture was incubated at 37° C. for 30 minutes. A control mixture, omitting the test compound, was prepared and treated in the same manner. The lipids from the incubation mixture were extracted into an organic solvent and separated by thin-layer chromatography. The cholesterol ester fraction was counted in a scintillation counter. A statistically significant inhibition of the ACAT enzyme is the criterion for activity.", "units": {"inhibition at 5.2 µg/mL": "%"}, "values": [{"smiles": "CC1CN(C(=O)Cc2ccccc2)CCN1c1ccc(Cl)cc1", "note": "(stereo not shown) [1-(p-Chlorophenyl)-2-methyl-4-phenylacetylpiperazine]", "inhibition at 5.2 µg/mL": 88.1}, {"smiles": "O=C(Cc1ccccc1)N1CCN(c2cnc3ccccc3n2)CC1", "note": "[1-Phenylacetyl-4-(2-quinoxalinyl)piperazine]", "inhibition at 5.2 µg/mL": 40.1}, {"smiles": "COc1cncc(N2CCN(C(=O)Cc3ccccc3)CC2)n1", "note": "[1-(6-Methoxy-2-pyrazinyl)-4-phenylacetylpiperazine]", "inhibition at 5.2 µg/mL": 38.1}, {"smiles": "CC(C)(C)c1ccc(C(=O)N2CCN(c3cnccn3)CC2)cc1", "note": "[1-(p-tert.-Butylbenzoyl)-4-(2-pyrazinyl)piperazine]", "inhibition at 5.2 µg/mL": 39.7}, {"smiles": "CCCCCCCC(=O)N1CCN(c2cnccn2)CC1", "note": "[1-octanoyl-4-(2-pyrazinyl)piperazine, 1-Octanoyl-4-(2-pyrazinyl)piperazine]", "inhibition at 5.2 µg/mL": 33.6}, {"smiles": "CCOC(=O)c1ccc(NC(=O)N2CCN(c3cnccn3)CC2)cc1", "note": "[Ethyl-p-[4-(2-pyrazinyl)-1-piperazinecarboxamido]benzoate]", "inhibition at 5.2 µg/mL": 42.2}, {"smiles": "Cc1ccccc1CC(=O)N1CCN(c2nccs2)CC1", "note": "[1-(2-Thiazolyl)-4-o-tolylacetylpiperazine]", "inhibition at 5.2 µg/mL": 32.6}, {"smiles": "O=C(c1c(F)c(F)c(F)c(F)c1F)N1CCN(c2cnccn2)CC1", "note": "[1-Pentafluorobenzoyl-4-(2-pyrazinyl)piperazine]", "inhibition at 5.2 µg/mL": 31.2}, {"smiles": "CC(C)(C)NC(=O)N1CCN(c2cnccn2)CC1", "note": "[N--tert.-Butyl-4-(2-pyrazinyl)-1-piperazinecarboxamide]", "inhibition at 5.2 µg/mL": 35.4}, {"smiles": "O=C(Cc1ccccc1)N1CCN(c2ccc(Cl)cc2)CC1", "note": "[1-(p-Chlorophenyl)-4-phenylacetylpiperazine]", "inhibition at 5.2 µg/mL": 73.3}, {"smiles": "O=C(O)c1ccc(NC(=O)N2CCN(c3cnccn3)CC2)cc1", "note": "[p-[4-(2-Pyrazinyl)-1-piperazinecarboxamide]-benzoic acid]", "inhibition at 5.2 µg/mL": 30.6}]}]}
